Experimental data taken from patent US8148070B2, “Genetic polymorphisms associated with coronary events and drug response, methods of detection and uses thereof” (Celera Corporation, priority 2007, dated 2012).

System: PROVE-IT patients
Test: PROVE-IT (PROVE IT-TIMI 22) genetic study: high-dose atorvastatin vs standard-dose pravastatin, death or major cardiovascular events by KIF6 719Arg carrier status
Format: in vivo, human
Description: Patients were followed for 18 to 36 months, with an average follow-up of 24 months.
Of the 1,724 patients who met the criteria listed above, 1344 (78.0%) were male. […] This study was approved by institutional review boards of the Brigham and Women's Hospital and all participating centers.
KIF6 genotypes were determined using allele—specific real-time PCR as previously described. Cox proportional hazard models (Wald tests) were used to assess the effect of atorvastatin-treatment on incident CHD in the KIF6 719Arg carriers and noncarriers. Continuous variables tested were age, baseline LDL-C, and baseline HDL-C levels. Categorical variables tested were smoking (current versus non-current), hypertension, and baseline diabetes. All reported p values are two-sided.

CC(C)c1c(C(=O)Nc2ccccc2)c(-c2ccccc2)c(-c2ccc(F)cc2)n1CC[C@@H](O)C[C@@H](O)CC(=O)O [Atorvastatin, atorvastatin]
HR, Model 1 (CHD, atorvastatin vs pravastatin) (ArgArg + ArgTrp (carriers), adjusted for sex, age, smoking, hypertension, diabetes, LDL-C, HDL-C, antibiotic): 0.56
HR, Unadjusted (CHD, atorvastatin vs pravastatin) (ArgArg + ArgTrp, 80 mg atorvastatin per day vs 40 mg pravastatin per day (ref)): 0.57
On-trial CHD (ArgArg + ArgTrp, totals 509 (atorvastatin), 502 (pravastatin)): 76 Number of patients
HR, Model 1 (CHD, atorvastatin vs pravastatin) (TrpTrp (noncarriers), adjusted): 0.97
HR, Unadjusted (CHD, atorvastatin vs pravastatin) (TrpTrp (noncarriers), pravastatin = ref): 0.99
On-trial CHD (TrpTrp, totals 359 (atorvastatin), 352 (pravastatin)): 81 Number of patients
unadjusted hazard ratio at 30 days (carriers of the KIF6 719Arg allele, 30 days after randomization, atorvastatin vs pravastatin): 0.18
reduction of relative risk of coronary events (carriers, high-dose atorvastatin vs standard-dose pravastatin): 44%
benefit of intensive therapy compared with moderate therapy (noncarriers, at any time point): no significant benefit
